Results on 19 compounds are retold here after ChEMBL document CHEMBL1909046, “DrugMatrix in vitro pharmacology data”.

For one experiment, the target named is T1, Substance-K receptor (Homo sapiens, UniProt P21452). Further: in other assays of this panel Not Active means under 50% inhibition at 10 µM.
T1 sequence (P21452 whole entry): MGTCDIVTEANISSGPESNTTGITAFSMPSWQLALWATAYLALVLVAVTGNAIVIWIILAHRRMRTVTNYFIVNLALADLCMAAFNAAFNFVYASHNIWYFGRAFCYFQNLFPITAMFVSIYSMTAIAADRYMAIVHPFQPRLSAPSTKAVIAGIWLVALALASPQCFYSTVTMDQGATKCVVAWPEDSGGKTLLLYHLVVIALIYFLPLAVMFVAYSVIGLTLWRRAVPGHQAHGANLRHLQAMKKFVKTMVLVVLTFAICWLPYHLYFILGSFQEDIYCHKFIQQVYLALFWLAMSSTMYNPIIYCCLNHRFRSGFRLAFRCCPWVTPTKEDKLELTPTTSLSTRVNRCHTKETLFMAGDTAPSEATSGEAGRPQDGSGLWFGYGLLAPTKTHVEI
It counts as cell membranes, CHO, Membrane. Conditions: cho.

The next experiment addresses T2, Glucocorticoid receptor (Homo sapiens, UniProt P04150).
T2 sequence (P04150 whole entry): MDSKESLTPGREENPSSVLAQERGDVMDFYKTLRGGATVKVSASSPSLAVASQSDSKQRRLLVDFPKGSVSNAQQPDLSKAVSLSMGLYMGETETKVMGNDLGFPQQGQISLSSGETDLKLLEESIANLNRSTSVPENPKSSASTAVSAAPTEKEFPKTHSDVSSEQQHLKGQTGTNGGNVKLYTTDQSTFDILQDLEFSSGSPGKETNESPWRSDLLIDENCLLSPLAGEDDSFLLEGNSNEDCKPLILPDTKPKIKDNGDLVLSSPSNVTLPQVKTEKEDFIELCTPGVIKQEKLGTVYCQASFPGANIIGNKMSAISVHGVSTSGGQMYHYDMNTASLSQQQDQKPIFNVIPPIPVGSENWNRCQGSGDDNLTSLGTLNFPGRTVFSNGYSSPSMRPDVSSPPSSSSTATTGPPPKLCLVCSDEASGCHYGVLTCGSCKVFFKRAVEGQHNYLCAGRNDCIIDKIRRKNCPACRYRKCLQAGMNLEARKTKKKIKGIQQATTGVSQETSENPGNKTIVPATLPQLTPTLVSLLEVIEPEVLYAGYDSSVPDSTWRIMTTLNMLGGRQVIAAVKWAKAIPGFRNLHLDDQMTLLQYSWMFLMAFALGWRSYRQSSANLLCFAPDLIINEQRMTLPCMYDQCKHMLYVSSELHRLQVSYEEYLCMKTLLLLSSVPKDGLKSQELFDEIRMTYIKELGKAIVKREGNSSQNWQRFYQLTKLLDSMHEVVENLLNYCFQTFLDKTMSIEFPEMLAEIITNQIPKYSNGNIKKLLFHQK
Briefly: biochemical.

Experiment [1] concerns the target T3, Alpha-1D adrenergic receptor (Homo sapiens, UniProt P25100). Further: in other assays of this panel Not Active means under 50% inhibition at 10 µM.
T3 sequence (P25100 whole entry): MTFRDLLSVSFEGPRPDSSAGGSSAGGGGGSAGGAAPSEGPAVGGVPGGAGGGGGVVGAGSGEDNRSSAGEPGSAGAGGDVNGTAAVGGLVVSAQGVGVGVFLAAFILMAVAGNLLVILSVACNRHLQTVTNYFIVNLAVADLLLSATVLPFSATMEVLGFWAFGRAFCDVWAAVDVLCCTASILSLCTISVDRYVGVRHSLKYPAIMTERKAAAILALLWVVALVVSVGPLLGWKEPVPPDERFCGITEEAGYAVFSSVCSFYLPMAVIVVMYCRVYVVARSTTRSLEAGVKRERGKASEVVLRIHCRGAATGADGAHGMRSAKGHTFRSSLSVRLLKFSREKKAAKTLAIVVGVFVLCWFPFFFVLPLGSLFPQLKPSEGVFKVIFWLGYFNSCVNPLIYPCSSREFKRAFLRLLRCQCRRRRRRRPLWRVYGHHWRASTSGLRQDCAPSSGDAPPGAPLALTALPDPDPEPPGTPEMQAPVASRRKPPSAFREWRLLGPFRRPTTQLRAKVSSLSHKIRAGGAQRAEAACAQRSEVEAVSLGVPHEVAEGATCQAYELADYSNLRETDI
It counts as cell membranes, HEK293, Membrane. Conditions: hek293.

In experiment [2] the target is Epidermal growth factor receptor (Homo sapiens, UniProt P00533). Briefly: DRUGMATRIX: Protein Tyrosine Kinase, EGF Receptor enzyme inhibition (substrate: Poly(Glu:Tyr)). It counts as cell-based, Insect cells. The conditions noted are these: insect cells; Not Active = under 50% inhibition at 10 µM.
The target of the next experiment is T4, Androgen receptor (Rattus norvegicus, UniProt P15207). Further: in other assays of this panel Not Active means under 50% inhibition at 10 µM.
T4 sequence (P15207 whole entry): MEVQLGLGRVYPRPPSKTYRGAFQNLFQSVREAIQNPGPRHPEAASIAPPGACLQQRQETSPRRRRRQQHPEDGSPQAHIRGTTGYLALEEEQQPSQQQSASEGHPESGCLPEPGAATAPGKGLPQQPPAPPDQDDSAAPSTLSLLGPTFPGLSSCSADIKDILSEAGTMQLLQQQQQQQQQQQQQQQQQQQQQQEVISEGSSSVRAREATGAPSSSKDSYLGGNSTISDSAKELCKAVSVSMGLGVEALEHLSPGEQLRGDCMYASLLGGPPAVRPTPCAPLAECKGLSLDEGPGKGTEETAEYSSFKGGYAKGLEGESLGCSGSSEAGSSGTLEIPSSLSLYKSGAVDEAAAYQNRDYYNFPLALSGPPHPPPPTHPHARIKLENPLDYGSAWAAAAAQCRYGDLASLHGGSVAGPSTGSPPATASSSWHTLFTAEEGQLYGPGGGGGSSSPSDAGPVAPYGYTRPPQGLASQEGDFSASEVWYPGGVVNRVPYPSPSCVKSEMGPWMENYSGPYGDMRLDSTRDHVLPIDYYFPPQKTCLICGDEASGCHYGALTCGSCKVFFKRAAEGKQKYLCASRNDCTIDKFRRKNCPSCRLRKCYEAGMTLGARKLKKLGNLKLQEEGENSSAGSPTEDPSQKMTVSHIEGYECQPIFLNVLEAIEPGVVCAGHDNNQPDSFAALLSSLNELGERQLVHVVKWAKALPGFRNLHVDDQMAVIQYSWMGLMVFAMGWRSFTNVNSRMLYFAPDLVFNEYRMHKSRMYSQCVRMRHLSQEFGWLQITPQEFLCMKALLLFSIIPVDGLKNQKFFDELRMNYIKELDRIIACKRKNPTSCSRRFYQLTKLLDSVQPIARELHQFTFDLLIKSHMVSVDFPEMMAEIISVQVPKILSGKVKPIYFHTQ

As usually defined, the IC50 is the concentration that inhibits the measured activity by half. As usually defined, the Ki is the equilibrium dissociation constant of an inhibitor or competing ligand from its target. Regarding `C[C@@H]1C[C@H]2[C@@H]3CCC4=CC(=O)C=C[C@]4(C)[C@@]3(F)[C@@H](O)C[C@]2(C)[C@H]1C(=O)CO` [DESOXIMETASONE], the half-inhibitory concentration (IC50) result was “Not Active” against Substance-K receptor, 2.57 nM against Glucocorticoid receptor, “Not Active” in experiment [1] and “Not Active” in experiment [2]. Moreover, the affinity on Glucocorticoid receptor, expressed as Ki, was 1.17 nM.

Take `CC(=O)[C@@]1(O)CC[C@H]2[C@@H]3CCC4=CC(=O)CC[C@]4(C)[C@H]3CC[C@@]21C` [HYDROXYPROGESTERONE]: the IC50 entry was “Not Active” against Substance-K receptor, 51 nM against Glucocorticoid receptor, “Not Active” in experiment [1] and “Not Active” in experiment [2]. Besides, on Glucocorticoid receptor, the affinity, expressed as Ki, was 23 nM.

As for `CC(C(=O)O)c1ccc2oc(-c3ccc(Cl)cc3)nc2c1` (stereo not drawn) [BENOXAPROFEN], the IC50 entry (at Substance-K receptor; against Androgen receptor; in experiment [1]; in experiment [2]) was “Not Active” throughout.

On to `CCC(=O)O[C@]1(C(=O)CCl)[C@@H](C)C[C@H]2[C@@H]3CCC4=CC(=O)C=C[C@]4(C)[C@@]3(F)[C@@H](O)C[C@@]21C` [CLOBETASOL PROPIONATE], for which the concentration for half-maximal inhibition (IC50) entry against Substance-K receptor was “Not Active”; against Glucocorticoid receptor, 1.46 nM; in experiment [1], “Not Active”; in experiment [2], “Not Active”. Moreover, the affinity at Glucocorticoid receptor, expressed as Ki, was 0.662 nM.

On to `C[C@@H](CO)NC(=O)[C@@H]1C=C2c3cccc4[nH]cc(c34)C[C@H]2N(C)C1` [ERGONOVINE], for which the IC50 result (on Substance-K receptor; on Androgen receptor; in experiment [1]; in experiment [2]) was “Not Active” each time.

`Nc1ccc2c3c(cccc13)C(=O)NC2=O`: the IC50 entry (against Substance-K receptor; on Androgen receptor; in experiment [1]; in experiment [2]) was “Not Active” each time.

As for `CCN(CC)CCOCCC1=CCC2CC1C2(C)C` (stereo not drawn) [MYRTECAINE], the IC50 result (at Substance-K receptor; on Androgen receptor; in experiment [1]; in experiment [2]) was “Not Active” in each case.

With `CC(C)=CCC/C(C)=C/CO` [GERANIOL], the IC50 result (on Substance-K receptor; on Androgen receptor; in experiment [1]; in experiment [2]) was “Not Active” each time.

As for `C#CC1(O)CC[C@H]2[C@@H]3CCC4=CC(=O)CC[C@@H]4[C@H]3CC[C@@]21CC` (stereo partly drawn) [NORGESTREL], the IC50 entry is “Not Active” on Substance-K receptor, 149 nM on Glucocorticoid receptor, “Not Active” in experiment [1] and “Not Active” in experiment [2]. On Glucocorticoid receptor, this compound displayed an inhibition constant (Ki) of 68 nM.

For the compound `CCCN(CCC)S(=O)(=O)c1ccc(C(=O)O)cc1` [PROBENECID], the concentration for half-maximal inhibition (IC50) result (on Substance-K receptor; on Androgen receptor; in experiment [1]; in experiment [2]) was “Not Active” each time.

As for `O=C1CN=C(c2ccccc2Cl)c2cc([N+](=O)[O-])ccc2N1` [CLONAZEPAM], the IC50 result (at Substance-K receptor; against Androgen receptor; in experiment [1]; in experiment [2]) was “Not Active” in each case.

Take GENTAMICIN: the IC50 result (at Substance-K receptor; at Androgen receptor; in experiment [1]; in experiment [2]) was “Not Active” in each case. For the same compound, the inhibitory constant (Ki) entry (at Substance-K receptor; on Androgen receptor; in experiment [1]; in experiment [2]) was “Not Active” each time.

Consider `C[C@@H]1O[C@@H](O[C@@H]2C=C3CC[C@@H]4[C@H](CC[C@]5(C)[C@@H](c6ccc(=O)oc6)CC[C@]45O)[C@@]3(C)CC2)[C@H](O)[C@H](O)[C@H]1O` [PROSCILLARIDIN], for which the half-maximal inhibitory concentration (IC50) result (against Substance-K receptor; at Androgen receptor; in experiment [1]; in experiment [2]) was “Not Active” in each case.

Regarding `C[n+]1ccc(-c2cc[n+](C)cc2)cc1.[Cl-].[Cl-]` [PARAQUAT DICHLORIDE], the IC50 result (on Substance-K receptor; at Androgen receptor; in experiment [1]; in experiment [2]) was “Not Active” throughout.

Regarding GADOPENTETATE DIMEGLUMINE, the IC50 result (against Substance-K receptor; at Androgen receptor; in experiment [1]; in experiment [2]) was “Not Active” throughout. Moreover, the inhibitory constant (Ki) result (at Substance-K receptor; on Androgen receptor; in experiment [1]; in experiment [2]) was “Not Active” throughout.

Take `CC(C)c1cccc(C(C)C)c1O` [PROPOFOL]: the half-inhibitory concentration (IC50) result (at Substance-K receptor; at Androgen receptor; in experiment [1]; in experiment [2]) was “Not Active” each time.

Take AURANOFIN: the concentration for half-maximal inhibition (IC50) result (against Substance-K receptor; at Androgen receptor; in experiment [1]; in experiment [2]) was “Not Active” each time. Also, the Ki result (at Substance-K receptor; at Androgen receptor; in experiment [1]; in experiment [2]) was “Not Active” each time.

As to `CC(=O)[C@H]1[C@H](C#N)C[C@H]2[C@@H]3CC=C4C[C@@H](O)CC[C@]4(C)[C@H]3CC[C@@]21C` [PREGNENOLONE CARBONITRILE], the IC50 entry is “Not Active” at Substance-K receptor, 14000 nM against Glucocorticoid receptor, “Not Active” in experiment [1] and “Not Active” in experiment [2]. For the same compound, the inhibition constant (Ki) at Glucocorticoid receptor was 6340 nM.

For the compound `C[C@@H]1CC[C@@]2(OC1)O[C@H]1[C@@H](O)[C@H]3[C@@H]4CC[C@H]5C[C@@H](O[C@@H]6O[C@H](CO)[C@H](O[C@@H]7O[C@H](CO)C(O)[C@H](O[C@@H]8OC[C@@H](O)[C@H](O)[C@H]8O)[C@H]7O[C@@H]7O[C@H](CO)[C@H](O)[C@H](O[C@@H]8O[C@H](CO)[C@@H](O)[C@H](O)[C@H]8O)[C@H]7O)[C@H](O)[C@H]6O)[C@H](O)C[C@]5(C)[C@H]4CC[C@]3(C)[C@H]1[C@@H]2C` (stereo partly drawn) [DIGITONIN], the half-maximal inhibitory concentration (IC50) result (against Substance-K receptor; on Androgen receptor; in experiment [1]; in experiment [2]) was “Not Active” in each case.
